According to ChEMBL document CHEMBL1201862, “PubChem BioAssay data set” (2004):
The source made the active and inactive calls.

Tests used:
Streptococcus = experiment: Group A Streptococcus viability loss, dose response, counter-screen for streptokinase expression inhibitor project, luminescence, BacTiterGlo (AID 1915); type: functional, organism-based;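 further: potency for reduction of bacterial viability or growth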
[1] = molecular target: T1, Small ubiquitin-related modifier 1 (Homo sapiens, UniProt P63165); experiment: inhibitors of SUMO1 peptide binding, dose response, biochemical, fluorescence polarization, uHTS hits (AID 624382); type: functional; conditions: read-out: IC50_Mean
T1 sequence (P63165 whole entry): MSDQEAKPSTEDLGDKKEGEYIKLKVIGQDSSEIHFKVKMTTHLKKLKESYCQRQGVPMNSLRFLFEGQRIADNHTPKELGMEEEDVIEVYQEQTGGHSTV

[2] = molecular target: Small ubiquitin-related modifier 2 (Homo sapiens, UniProt P61956); experiment: inhibitors of SUMO2 protein-protein interaction, dose response, selectivity assay for SUMO1 interaction inhibitor project, biochemical, FRET, human SUMO2, uHTS hits (AID 624384); type: functional; conditions: read-out: IC50_Mean
Sequence of Small ubiquitin-related modifier 2 (P61956 whole entry): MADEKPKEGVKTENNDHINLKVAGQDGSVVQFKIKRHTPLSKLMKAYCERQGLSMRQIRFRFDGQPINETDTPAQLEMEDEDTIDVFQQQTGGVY

[3] = molecular target: T1, Small ubiquitin-related modifier 1; experiment: inhibitors of SUMO1 partner interactions, dose response, biochemical, FRET (AID 624383); type: functional; conditions: read-out: IC50_Mean
[4] = molecular target: T2, RNA-editing ligase 1, mitochondrial (Trypanosoma brucei brucei, UniProt P86926); experiment: TbREL1 ligase inhibitors, dose response, biochemical, fluorescence, Trypanosoma brucei (AID 1117295); type: functional
T2 sequence (P86926 whole entry): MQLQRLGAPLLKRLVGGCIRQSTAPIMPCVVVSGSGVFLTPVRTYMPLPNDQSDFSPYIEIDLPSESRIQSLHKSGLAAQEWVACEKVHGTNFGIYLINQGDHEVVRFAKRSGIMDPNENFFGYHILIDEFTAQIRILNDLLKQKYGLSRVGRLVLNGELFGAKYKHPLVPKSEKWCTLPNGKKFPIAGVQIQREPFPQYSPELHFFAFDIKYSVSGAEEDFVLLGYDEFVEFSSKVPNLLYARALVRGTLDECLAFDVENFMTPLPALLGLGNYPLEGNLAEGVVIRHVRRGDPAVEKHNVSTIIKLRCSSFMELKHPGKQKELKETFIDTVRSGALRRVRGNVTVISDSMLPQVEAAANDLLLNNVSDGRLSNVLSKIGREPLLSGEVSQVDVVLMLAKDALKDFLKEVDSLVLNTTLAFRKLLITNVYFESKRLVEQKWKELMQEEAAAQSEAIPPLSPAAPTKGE

Hexokinase HKDC1 = molecular target: T3, Hexokinase HKDC1 (Homo sapiens, UniProt Q2TB90); experiment: HKDC1 hexokinase inhibitors, dose response, biochemical, W721R variant (AID 504729); type: functional
T3 sequence (Q2TB90 whole entry): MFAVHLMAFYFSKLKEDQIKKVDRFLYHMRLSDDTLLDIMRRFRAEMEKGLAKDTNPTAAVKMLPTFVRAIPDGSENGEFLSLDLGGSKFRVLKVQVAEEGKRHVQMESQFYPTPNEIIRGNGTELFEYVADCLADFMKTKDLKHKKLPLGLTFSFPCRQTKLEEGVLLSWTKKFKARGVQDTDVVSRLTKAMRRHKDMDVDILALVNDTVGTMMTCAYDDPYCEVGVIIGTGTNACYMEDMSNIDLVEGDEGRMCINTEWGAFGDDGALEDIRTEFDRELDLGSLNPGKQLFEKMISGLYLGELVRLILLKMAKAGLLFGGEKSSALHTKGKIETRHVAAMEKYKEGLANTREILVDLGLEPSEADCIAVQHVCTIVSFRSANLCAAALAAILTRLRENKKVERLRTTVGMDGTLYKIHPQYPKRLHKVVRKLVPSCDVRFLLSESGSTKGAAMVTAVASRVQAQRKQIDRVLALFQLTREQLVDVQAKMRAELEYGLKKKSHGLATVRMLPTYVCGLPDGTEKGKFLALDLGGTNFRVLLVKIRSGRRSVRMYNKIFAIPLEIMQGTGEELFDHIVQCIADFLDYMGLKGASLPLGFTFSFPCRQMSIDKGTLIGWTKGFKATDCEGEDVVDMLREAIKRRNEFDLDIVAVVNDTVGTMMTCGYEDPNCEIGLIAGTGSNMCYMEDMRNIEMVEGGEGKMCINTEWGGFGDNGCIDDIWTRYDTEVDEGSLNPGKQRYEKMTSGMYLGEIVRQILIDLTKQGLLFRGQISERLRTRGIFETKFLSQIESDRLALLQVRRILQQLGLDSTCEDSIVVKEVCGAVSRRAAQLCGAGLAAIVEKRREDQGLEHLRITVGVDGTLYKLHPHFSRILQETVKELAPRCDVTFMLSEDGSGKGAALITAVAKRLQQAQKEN

Genome polyprotein = Genome polyprotein (dengue virus type 2, UniProt P29990); experiment: Dengue-2 NS5 methyltransferase inhibitors, primary screen, biochemical, confirmation dose response (AID 588689); type: functional
Sequence of Genome polyprotein (P29990 2492-3391 limits assumed): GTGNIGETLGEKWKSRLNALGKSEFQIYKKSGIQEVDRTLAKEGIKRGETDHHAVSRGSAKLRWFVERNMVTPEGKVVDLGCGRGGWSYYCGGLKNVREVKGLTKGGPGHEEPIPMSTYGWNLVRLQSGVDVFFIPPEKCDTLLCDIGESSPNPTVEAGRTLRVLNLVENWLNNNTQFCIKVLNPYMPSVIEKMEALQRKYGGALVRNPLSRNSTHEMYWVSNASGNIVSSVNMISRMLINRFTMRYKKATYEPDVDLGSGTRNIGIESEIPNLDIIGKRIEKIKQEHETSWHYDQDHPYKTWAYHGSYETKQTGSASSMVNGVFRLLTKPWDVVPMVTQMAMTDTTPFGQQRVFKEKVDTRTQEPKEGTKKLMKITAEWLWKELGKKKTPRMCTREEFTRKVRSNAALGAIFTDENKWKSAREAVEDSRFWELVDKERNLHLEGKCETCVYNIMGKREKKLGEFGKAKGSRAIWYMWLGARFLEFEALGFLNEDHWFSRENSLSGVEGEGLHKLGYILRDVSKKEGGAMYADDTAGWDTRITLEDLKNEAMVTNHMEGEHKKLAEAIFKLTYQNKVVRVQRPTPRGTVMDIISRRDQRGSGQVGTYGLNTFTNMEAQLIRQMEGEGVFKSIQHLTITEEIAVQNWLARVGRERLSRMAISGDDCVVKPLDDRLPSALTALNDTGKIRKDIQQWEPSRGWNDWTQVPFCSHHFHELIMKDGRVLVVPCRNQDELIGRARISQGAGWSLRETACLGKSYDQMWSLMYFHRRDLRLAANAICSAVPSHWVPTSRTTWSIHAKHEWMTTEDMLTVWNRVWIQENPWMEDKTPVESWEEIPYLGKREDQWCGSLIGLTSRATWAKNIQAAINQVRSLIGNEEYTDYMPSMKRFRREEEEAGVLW

Protein RecA = molecular target: T4, Protein RecA (Mycobacterium tuberculosis, UniProt P9WHJ3); experiment: Fluorescence Cell-Free Homogeneous Dose Retest to Identify Inhibitors of RecA-Intein Splicing Activity. [Related pubchem assays (depositor defined):AID2097, AID2223, AID489010, AID492950]; type: functional
T4 sequence (P9WHJ3 whole entry): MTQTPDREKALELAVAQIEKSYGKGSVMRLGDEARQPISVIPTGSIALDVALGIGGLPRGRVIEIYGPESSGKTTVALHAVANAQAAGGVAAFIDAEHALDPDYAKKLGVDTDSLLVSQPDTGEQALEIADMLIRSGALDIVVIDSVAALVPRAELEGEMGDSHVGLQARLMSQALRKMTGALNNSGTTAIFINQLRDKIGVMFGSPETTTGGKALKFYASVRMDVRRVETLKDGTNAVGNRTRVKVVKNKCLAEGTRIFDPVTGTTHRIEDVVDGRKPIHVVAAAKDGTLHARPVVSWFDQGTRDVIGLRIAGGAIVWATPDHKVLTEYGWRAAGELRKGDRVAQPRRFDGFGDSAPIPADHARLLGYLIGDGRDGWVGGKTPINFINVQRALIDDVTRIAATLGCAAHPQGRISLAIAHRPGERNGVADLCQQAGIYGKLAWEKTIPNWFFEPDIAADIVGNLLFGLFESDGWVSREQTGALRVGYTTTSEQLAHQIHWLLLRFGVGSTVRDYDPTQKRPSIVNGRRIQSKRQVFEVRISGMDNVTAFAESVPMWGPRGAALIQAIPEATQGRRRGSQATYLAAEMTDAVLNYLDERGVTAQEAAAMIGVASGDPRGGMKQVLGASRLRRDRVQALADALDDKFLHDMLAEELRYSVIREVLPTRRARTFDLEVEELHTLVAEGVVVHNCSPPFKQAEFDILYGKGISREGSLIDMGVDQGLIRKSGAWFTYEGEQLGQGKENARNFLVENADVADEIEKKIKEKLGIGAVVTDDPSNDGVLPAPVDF

SMILES: CCN1/C(=C/c2ccc3cc(C)ccc3[n+]2CC)Sc2cc(C)c(C)cc21
- EC50 (Streptococcus): 8.85 µM (active)

SMILES: Nc1ccc2nc3c(O)nc(S)nc3nc2c1
- IC50 [1]: 5.69 µM (active)
- IC50 [2]: 0.584 µM (active)
- IC50 [3]: 17.5 µM (active)
- IC50 [4]: 2.76 µM (active)

SMILES: Cc1oc2c(c1C(=O)c1ccccc1)C(=O)C(=O)c1ccccc1-2
- IC50 (Hexokinase HKDC1): 14.5 µM (active)
- IC50 (Genome polyprotein): 48.4 µM (active)
- IC50 [4]: 10.3 µM (inactive)

SMILES: O=C1CCCC2=C1C1(O)C(=O)c3ccccc3C1(O)O2 (stereo unspecified)
- EC50 (Protein RecA): 11.5 µM (active)

SMILES: CSc1ccc(C=NNc2ccc(S(=O)(=O)Nc3ccccc3C(=O)O)cc2[N+](=O)[O-])cc1
- IC50 [1]: 3.23 µM (active)
- IC50 [2]: 53.1 µM (inactive)
- IC50 [3]: 50.8 µM (inactive)

SMILES: O=C1C(Cl)=C(NCCN2CCCCC2)C(=O)c2ccccc21
- EC50 (Protein RecA): 7.31 µM (active)

SMILES: O=C(O)COc1ccc(/C=N/NC(=O)c2ccc(-c3csc(Nc4ccc(Cl)cc4)n3)cc2)cc1
- IC50 (Hexokinase HKDC1): 33 µM (inactive)

SMILES: CC(/C=C1\SC(=S)N(NS(=O)(=O)c2ccccc2)C1=O)=C\c1ccccc1
- EC50 (Streptococcus): > 150 µM (not active)
- IC50 (Genome polyprotein): 29.3 µM (active)
